Measurements reported in patent US8580965B2, “Substituted sulfonamide compounds” (Gruenenthal GmbH, priority 2006, dated 2013).
Structures can show the parent of a compound that is named as a salt.

Assays:
[1] = target: T1, human B1R receptor (bradykinin 1 receptor) (Homo sapiens, UniProt P46663); assay: FLIPR Ca2+ assay (Fluo-4) on CHO K1 cells stably transfected with the human B1R gene; % activation and % inhibition at 10 μM; type: cell-based; conditions: CHO K1 hB1R cells, Ca2+ inflow after 0.5 nM Lys-Des-Arg9-bradykinin; for inhibition at 10 µM: CHO-K1, test substance 10 μM, read-out: B1R antagonism, human [10 μM] % inhibition; for B1R antagonism, human [10 μM] % inhibition: test substance 10 μM
T1 construct: host or cells: CHO K1 cells (hB1R cells)
T1 sequence (P46663 1-353): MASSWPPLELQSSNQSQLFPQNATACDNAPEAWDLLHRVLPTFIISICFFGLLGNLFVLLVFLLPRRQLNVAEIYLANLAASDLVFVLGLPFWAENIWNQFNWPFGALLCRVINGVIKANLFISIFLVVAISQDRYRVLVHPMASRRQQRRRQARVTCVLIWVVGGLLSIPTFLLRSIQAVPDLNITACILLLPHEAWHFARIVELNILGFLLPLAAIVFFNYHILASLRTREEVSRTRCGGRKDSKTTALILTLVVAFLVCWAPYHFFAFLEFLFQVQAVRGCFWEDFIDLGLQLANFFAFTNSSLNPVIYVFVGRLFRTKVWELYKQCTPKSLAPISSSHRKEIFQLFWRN
Procedure, shortened: (§1)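 CHO K1 cells stably expressing human or rat B1R, Fluo-4 loaded, read by FLIPR (peak fluorescence). Compound at 10 µM first gives % activation versus agonist; after 10 min, agonist (human: 0.5 nM Lys-Des-Arg9-bradykinin; rat: 100 nM Des-Arg9-bradykinin) gives % inhibition relative to maximal inhibition.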

[2] = target: T2, B1R receptor of the rat (bradykinin 1 receptor) (Rattus norvegicus, UniProt P97583); assay: FLIPR Ca2+ assay (Fluo-4) on CHO K1 cells stably transfected with the B1R gene of the rat; % activation and % inhibition at 10 μM; type: cell-based; conditions: CHO K1 rB1R cells, Ca2+ inflow after 100 nM Des-Arg9-bradykinin; for inhibition at 10 µM: CHO-K1, test substance 10 μM, read-out: B1R antagonism, rat [10 μM] % inhibition; for B1R antagonism, rat [10 μM] % inhibition: test substance 10 μM
T2 construct: host or cells: CHO K1 cells (rB1R cells)
T2 sequence (P97583 1-337): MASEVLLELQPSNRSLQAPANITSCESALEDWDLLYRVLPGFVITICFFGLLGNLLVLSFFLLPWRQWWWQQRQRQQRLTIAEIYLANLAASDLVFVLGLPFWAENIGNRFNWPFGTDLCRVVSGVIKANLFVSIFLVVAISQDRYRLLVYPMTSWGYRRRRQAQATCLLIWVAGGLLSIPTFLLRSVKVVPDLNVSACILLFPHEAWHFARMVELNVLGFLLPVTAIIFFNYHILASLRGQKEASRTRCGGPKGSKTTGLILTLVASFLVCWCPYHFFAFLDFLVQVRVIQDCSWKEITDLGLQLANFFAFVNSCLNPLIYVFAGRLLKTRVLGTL
Procedure, shortened: as §1

Structure (SMILES)	inhibition at 10 µM [1] [%]	inhibition at 10 µM [2] [%]	also measured
COc1cc(C)c(S(=O)(=O)N(C)CCOCC(=O)N2CCC(O)(Cc3ccncc3)CC2)c(C)c1 [Example 280, N-(2-(2-(4-hydroxy-4-(pyridin-4-ylmethyl)piperidin-1-yl)-2-oxoethoxy)ethyl)-4-methoxy-N,2,6-trimethylphenylsulfonamide]	100	100	
COc1cc(C)c(S(=O)(=O)N2CCCC2COCC(=O)N2CCC(O)(c3ccc(Cl)c(C(F)(F)F)c3)CC2)c(C)c1 (stereo not drawn) [Example 213, 1-(4-(4-chloro-3-(trifluormethyl)phenyl)-4-hydroxypiperidin-1-yl)-2-((1-(4-methoxy-2,6-dimethylphenylsulfonyl)pyrrolidin-2-yl)methoxy)ethanone]			B1R antagonism, human [10 μM] % inhibition [1]: 103.55%; B1R antagonism, rat [10 μM] % inhibition [2]: 101.25%
COc1cc(C)c(S(=O)(=O)N(C)CCOCC(=O)N2CCC(O)(c3ccccc3)CC2)c(C)c1 [Example 137, N-(2-(2-(4-hydroxy-4-phenylpiperidin-1-yl)-2-oxoethoxy)ethyl)-4-methoxy-N,2,6-trimethylphenylsulfonamide]	101	99.3	
COc1ccc(S(=O)(=O)N(C)CCOCC(=O)N2CCC(O)(c3ccccn3)CC2)cc1 [Example 42, N-{2-[2-(4′-hydroxy-3′,4′,5′,6′-tetrahydro-2′H-[2,4′]bipyridinyl-1′-yl)-2-oxo-ethoxy]-ethyl}-4-methoxy-N-methyl-phenylsulfonamide]	0.67	-38.1	
COc1ccc(S(=O)(=O)N2Cc3ccccc3CC2COCC(=O)N2CCC(O)(Cc3ccccc3)CC2)cc1 (stereo not drawn) [Example 23, 1-(4-benzyl-4-hydroxy-piperidin-1-yl)-2-[2-(4-methoxy-phenylsulfonyl)-1,2,3,4-tetrahydro-isoquinolin-3-ylmethoxy]-ethanone]	15.7	56.9	
O=C(COCC1Cc2ccccc2CN1S(=O)(=O)c1ccc(Cl)cc1Cl)N1CCC(O)(c2cccnc2)CC1 (stereo not drawn) [Example 92, 2-[2-(2,4-dichloro-phenylsulfonyl)-1,2,3,4-tetrahydro-isoquinolin-3-ylmethoxy]-1-(4′-hydroxy-3′,4′,5′,6′-tetrahydro-2′H-[3,4′]bipyridinyl-1′-yl)-ethanone]			B1R antagonism, human [10 μM] % inhibition [1]: 101.02%; B1R antagonism, rat [10 μM] % inhibition [2]: 97.98%
COc1cc(C)c(S(=O)(=O)N2CCCC2COCC(=O)N2CCC(O)(c3cccnc3)CC2)c(C)c1 (stereo not drawn) [Example 89, 1-(4′-hydroxy-3′,4′,5′,6′-tetrahydro-2′H-[3,4′]bipyridinyl-1′-yl)-2-[1-(4-methoxy-2,6-dimethyl-phenylsulfonyl)-pyrrolidin-2-ylmethoxy]-ethanone; hydrochloride]			B1R antagonism, human [10 μM] % inhibition ([1]; hydrochloride): 104.46%; B1R antagonism, rat [10 μM] % inhibition ([2]; hydrochloride): 100.44%
O=C(COC1CCCCC1N(Cc1ccccc1)S(=O)(=O)c1ccc(Cl)c(Cl)c1)N1CCC(O)(Cc2ccccc2)CC1 (stereo not drawn) [Example 84, N-benzyl-N-{2-[2-(4-benzyl-4-hydroxy-piperidin-1-yl)-2-oxo-ethoxy]-cyclohexyl}-3,4-dichloro-phenylsulfonamide]	-0.61	-9.47	
COc1cc(C)c(S(=O)(=O)N2CCCCC2COCC(=O)N2CCC(O)(Cc3ccccc3)CC2)c(C)c1 (stereo not drawn) [Example 245, 1-(4-benzyl-4-hydroxypiperidin-1-yl)-2-((1-(4-methoxy-2,6-dimethylphenylsulfonyl)piperidin-2-yl)methoxy)ethanone]	99.8	97.7	
Cc1cc(C)c(S(=O)(=O)N2Cc3ccccc3CC2COCC(=O)N2CCC(O)(c3ccccc3)CC2)c(C)c1 (stereo not drawn) [Example 101, 1-(4-hydroxy-4-phenylpiperidin-1-yl)-2-((2-(mesitylsulfonyl)-1,2,3,4-tetrahydroisoquinolin-3-yl)methoxy)ethanone]	102	85.4	
CN(CCOCC(=O)N1CCC(O)(c2ccccn2)CC1)S(=O)(=O)c1cc(F)cc(F)c1 [Example 70, 3,5-difluoro-N-{2-[2-(4′-hydroxy-3′,4′,5′,6′-tetrahydro-2′H-[2,4′]bipyridinyl-1′-yl)-2-oxo-ethoxy]-ethyl}-N-methyl-phenylsulfonamide]	7.12	-12.2	
COc1cc(C)c(S(=O)(=O)N2Cc3ccccc3CC2COCC(=O)N2CCC(O)(Cc3ccccc3)CC2)c(C)c1C (stereo not drawn) [Example 232, 1-(4-benzyl-4-hydroxypiperidin-1-yl)-2-((2-(4-methoxy-2,3,6-trimethylphenylsulfonyl)-1,2,3,4-tetrahydroisoquinolin-3-yl)methoxy)ethanone]	54.5	63.1	

Further lines, with some results ahead:

inhibition at 10 µM [1] [%]	inhibition at 10 µM [2] [%]	Structure (SMILES)	also measured
24.6	105	O=C(COCC1CCCCN1S(=O)(=O)c1c(Cl)cc(C(F)(F)F)cc1Cl)N1CCC(O)(c2ccccc2)CC1 (stereo not drawn) [Example 162, 2-((1-(2,6-dichloro-4-(trifluoromethyl)phenylsulfonyl)piperidin-2-yl)methoxy)-1-(4-hydroxy-4-phenylpiperidin-1-yl)ethanone]	
14.6	79.4	O=C(COCC1CCCN1S(=O)(=O)c1c(Cl)cc(C(F)(F)F)cc1Cl)N1CCC(O)(Cc2ccccc2)CC1 (stereo not drawn) [Example 169, 1-(4-benzyl-4-hydroxypiperidin-1-yl)-2-((1-(2,6-dichloro-4-(trifluoromethyl)phenylsulfonyl)pyrrolidin-2-yl)methoxy)ethanone]	
62.3	82.5	O=C(COCC1Cc2ccccc2CN1S(=O)(=O)c1ccc(Cl)cc1Cl)N1CCC(O)(c2ccccc2)CC1 (stereo not drawn) [Example 80, 2-((2-(2,4-dichlorophenylsulfonyl)-1,2,3,4-tetrahydroisoquinolin-3-yl)methoxy)-1-(4-hydroxy-4-phenylpiperidin-1-yl)ethanone]	
82.5	73.7	O=C(COCC1CCCN(S(=O)(=O)c2c(Cl)cc(Cl)cc2Cl)C1)N1CCC(O)(c2ccccc2)CC1 (stereo not drawn) [Example 255, 1-(4-hydroxy-4-phenylpiperidin-1-yl)-2-((1-(2,4,6-trichlorophenylsulfonyl)piperidin-3-yl)methoxy)ethanone]	
13.7	12.7	O=C(COCC1Cc2ccccc2CN1S(=O)(=O)c1ccc(Cl)c(Cl)c1)N1CCC(O)(c2ccccc2)CC1 (stereo not drawn) [Example 78, 2-((2-(3,4-dichlorophenylsulfonyl)-1,2,3,4-tetrahydroisoquinolin-3-yl)methoxy)-1-(4-hydroxy-4-phenylpiperidin-1-yl)ethanone]	
18	76.3	O=C(COC1CCCN(S(=O)(=O)c2c(Cl)cc(Cl)cc2Cl)C1)N1CCC(O)(c2ccc(Cl)c(C(F)(F)F)c2)CC1 (stereo not drawn) [Example 250, 1-(4-(4-chloro-3-(trifluoromethyl)phenyl)-4-hydroxypiperidin-1-yl)-2-(1-(2,4,6-trichlorophenylsulfonyl)piperidin-3-yloxy)ethanone]	
103	102	O=C(COCC1CCCN1S(=O)(=O)c1c(Cl)cccc1Cl)N1CCC(O)(c2ccc(Cl)c(C(F)(F)F)c2)CC1 (stereo not drawn) [Example 218, 1-(4-(4-chloro-3-(trifluoromethyl)phenyl)-4-hydroxypiperidin-1-yl)-2-((1-(2,6-dichlorophenylsulfonyl)pyrrolidin-2-yl)methoxy)ethanone]	
47.9	54.7	O=C(CCC1CCCCN1S(=O)(=O)c1cccc(C(F)(F)F)c1)N1CCC(O)(c2ccc(Br)cc2)CC1 (stereo not drawn) [Example 123, 1-(4-(4-bromophenyl)-4-hydroxypiperidin-1-yl)-3-(1-(3-(trifluoromethyl)phenylsulfonyl)piperidin-2-yl)propan-1-one]	
38.5	97	Cc1cc(S(=O)(=O)N2CCCCC2COCC(=O)N2CCC(O)(Cc3ccccc3)CC2)c(C)cc1Cl (stereo not drawn) [Example 159, 1-(4-benzyl-4-hydroxypiperidin-1-yl)-2-((1-(4-chloro-2,5-dimethylphenylsulfonyl)piperidin-2-yl)methoxy)ethanone]	
